From ChEMBL document CHEMBL3872220, “Amphiphilic xanthones as a potent chemical entity of anti-mycobacterial agents with membrane-targeting properties” (Eur J Med Chem, 2016)
In brackets after ≈: the same amount, converted by molar mass.

Experiments:
[1] = system: Mycolicibacterium smegmatis; assay: Antimycobacterial activity against Mycobacterium smegmatis MC2 155 assessed as ATP leakage by measuring extracellular ATP at 2 times MIC measured immediatey after addition of compounds by luciferase reporter gene assay; assay type: functional, str. MC2 155
[2] = system: Mycolicibacterium smegmatis; assay: Antimycobacterial activity against Mycobacterium smegmatis MC2 155 assessed as ATP leakage by measuring extracellular ATP at 2 times MIC measured at 3 hrs post dose by luciferase reporter gene assay; assay type: functional, str. MC2 155
[3] = system: Mycolicibacterium smegmatis; assay: Antimycobacterial activity against Mycobacterium smegmatis MC2 155 assessed as ATP leakage by measuring intracellular ATP at 4 times MIC measured immediatey after addition of compounds by luciferase reporter gene assay; assay type: functional, str. MC2 155
[4] = system: Mycolicibacterium smegmatis; assay: Antimycobacterial activity against Mycobacterium smegmatis MC2 155 assessed as inhibition of respiratory ATP synthesis by measuring ATP level at 4 times MIC measured after 3 hrs by luciferase reporter gene assay (reference value: 158.3%); assay type: functional, str. MC2 155; set-up: scale not given: the % may be the effect or the level left
[5] = system: Mycolicibacterium smegmatis; assay: Antimycobacterial activity against Mycobacterium smegmatis MC2 155 assessed as ATP leakage by measuring intracellular ATP at 2 times MIC measured at 24 hrs post dose by luciferase reporter gene assay; assay type: functional, str. MC2 155
[6] = system: Mycolicibacterium smegmatis; assay: Antimycobacterial activity against Mycobacterium smegmatis MC2 155 assessed as ATP leakage by measuring intracellular ATP at 2 times MIC measured at 3 hrs post dose by luciferase reporter gene assay; assay type: functional, str. MC2 155
[7] = system: Mycolicibacterium smegmatis; assay: Antimycobacterial activity against Mycobacterium smegmatis MC2 155 assessed as ATP leakage by measuring extracellular ATP at 4 times MIC measured at 1 hr of post dose by luciferase reporter gene assay; assay type: functional, str. MC2 155
[8] = system: Mycolicibacterium smegmatis; assay: Antimycobacterial activity against Mycobacterium smegmatis MC2 155 assessed as ATP leakage by measuring extracellular ATP at MIC measured at 3 hrs post dose by luciferase reporter gene assay; assay type: functional, str. MC2 155
[9] = system: Mycolicibacterium smegmatis; assay: Antimycobacterial activity against Mycobacterium smegmatis MC2 155 assessed as ATP leakage by measuring intracellular ATP at MIC measured at 1 hr of post dose by luciferase reporter gene assay; assay type: functional, str. MC2 155
[10] = system: Mycolicibacterium smegmatis; assay: Antimycobacterial activity against Mycobacterium smegmatis MC2 155 assessed as ATP leakage by measuring intracellular ATP at 4 times MIC measured at 1 hr of post dose by luciferase reporter gene assay; assay type: functional, str. MC2 155
[11] = Drug metabolism in rat liver microsomes at 1 uM preincubated for 5 mins followed by NADPH addition measured up to 30 mins by LC-MS/MS method; assay type: ADME; conditions: read-out: Drug metabolism
[12] = Cytotoxicity against human corneal fibroblasts assessed as increase in LDH level measured after 4 hrs by Cytotox-one […] assay; assay type: toxicity, Corneal fibroblast
[13] = system: Mycolicibacterium smegmatis; assay: Antimycobacterial activity against Mycobacterium smegmatis MC2 155 assessed as ATP leakage by measuring extracellular ATP at 4 times MIC measured at 6 hrs post dose by luciferase reporter gene assay; assay type: functional, str. MC2 155
[14] = system: Mycolicibacterium smegmatis; assay: Antimycobacterial activity against Mycobacterium smegmatis MC2 155 assessed as ATP leakage by measuring extracellular ATP at 2 times MIC measured at 6 hrs post dose by luciferase reporter gene assay; assay type: functional, str. MC2 155
[15] = Cytotoxicity against human corneal fibroblasts assessed as reduction in ATP level measured after 4 hrs by Celltiter-Glo luminescent assay; assay type: toxicity, Corneal fibroblast
[16] = system: Mycolicibacterium smegmatis; assay: Antimycobacterial activity against Mycobacterium smegmatis MC2 155 assessed as ATP leakage by measuring intracellular ATP at 4 times MIC measured at 24 hrs post dose by luciferase reporter gene assay; assay type: functional, str. MC2 155
[17] = system: Mycolicibacterium smegmatis; assay: Antimycobacterial activity against Mycobacterium smegmatis MC2 155 assessed as ATP leakage by measuring intracellular ATP at 0.5 times MIC measured at 3 hrs post dose by luciferase reporter gene assay; assay type: functional, str. MC2 155
[18] = system: Mycolicibacterium smegmatis; assay: Antimycobacterial activity against Mycobacterium smegmatis MC2 155 assessed as ATP leakage by measuring intracellular ATP at 2 times MIC measured at 1 hr of post dose by luciferase reporter gene assay; assay type: functional, str. MC2 155
[19] = system: Mycolicibacterium smegmatis; assay: Antimycobacterial activity against Mycobacterium smegmatis MC2 155 assessed as ATP leakage by measuring extracellular ATP at 0.5 times MIC measured at 3 hrs post dose by luciferase reporter gene assay; assay type: functional, str. MC2 155
[20] = system: Mycolicibacterium smegmatis; assay: Antimycobacterial activity against Mycobacterium smegmatis MC2 155 assessed as ATP leakage by measuring intracellular ATP at 4 times MIC measured at 6 hrs post dose by luciferase reporter gene assay; assay type: functional, str. MC2 155
[21] = system: Mycolicibacterium smegmatis; assay: Antimycobacterial activity against Mycobacterium smegmatis MC2 155 assessed as ATP leakage by measuring extracellular ATP at 2 times MIC measured at 9 hrs post dose by luciferase reporter gene assay; assay type: functional, str. MC2 155
[22] = system: Mycolicibacterium smegmatis; assay: Antimycobacterial activity against Mycobacterium smegmatis MC2 155 assessed as ATP leakage by measuring extracellular ATP at MIC measured at 6 hrs post dose by luciferase reporter gene assay; assay type: functional, str. MC2 155
[23] = system: Mycolicibacterium smegmatis; assay: Antimycobacterial activity against Mycobacterium smegmatis MC2 155 assessed as ATP leakage by measuring extracellular ATP at 4 times MIC measured at 3 hrs post dose by luciferase reporter gene assay; assay type: functional, str. MC2 155
[24] = system: Mycolicibacterium smegmatis; assay: Antimycobacterial activity against Mycobacterium smegmatis MC2 155 assessed as ATP leakage by measuring extracellular ATP at MIC measured at 24 hrs post dose by luciferase reporter gene assay; assay type: functional, str. MC2 155
[25] = system: Mycolicibacterium smegmatis; assay: Antimycobacterial activity against Mycobacterium smegmatis MC2 155 assessed as ATP leakage by measuring extracellular ATP at 4 times MIC measured at 9 hrs post dose by luciferase reporter gene assay; assay type: functional, str. MC2 155
[26] = system: Mycolicibacterium smegmatis; assay: Antimycobacterial activity against Mycobacterium smegmatis MC2 155 after 24 hrs by broth dilution assay; assay type: functional; conditions: str. MC2 155, 24 h
CYP2D6 = CYP2D6 (Homo sapiens, UniProt P10635); assay: Inhibition of CYP2D6 in human liver microsomes at 10 uM using bufuralol as substrate preincubated for 5 min followed by NADPH addition measured after 10 mins by LC-MS/MS method relative to control; assay type: ADME; conditions: probe bufuralol
[27] = system: Mycolicibacterium smegmatis; assay: Antimycobacterial activity against Mycobacterium smegmatis MC2 155 assessed as ATP leakage by measuring intracellular ATP at MIC measured at 6 hrs post dose by luciferase reporter gene assay; assay type: functional, str. MC2 155
[28] = system: Mycolicibacterium smegmatis; assay: Antimycobacterial activity against Mycobacterium smegmatis MC2 155 assessed as ATP leakage by measuring extracellular ATP at 0.5 times MIC measured at 6 hrs post dose by luciferase reporter gene assay; assay type: functional, str. MC2 155
[29] = system: Mycolicibacterium smegmatis; assay: Antimycobacterial activity against Mycobacterium smegmatis MC2 155 assessed as ATP leakage by measuring intracellular ATP at 0.5 times MIC measured at 6 hrs post dose by luciferase reporter gene assay; assay type: functional, str. MC2 155
[30] = system: Mycolicibacterium smegmatis; assay: Antimycobacterial activity against Mycobacterium smegmatis MC2 155 assessed as ATP leakage by measuring extracellular ATP at 0.5 times MIC measured at 9 hrs post dose by luciferase reporter gene assay; assay type: functional, str. MC2 155
[31] = system: Mycolicibacterium smegmatis; assay: Antimycobacterial activity against Mycobacterium smegmatis MC2 155 assessed as ATP leakage by measuring intracellular ATP at MIC measured immediatey after addition of compounds by luciferase reporter gene assay; assay type: functional, str. MC2 155
[32] = system: Mycolicibacterium smegmatis; assay: Antimycobacterial activity against Mycobacterium smegmatis MC2 155 assessed as ATP leakage by measuring extracellular ATP at 4 times MIC measured immediatey after addition of compounds by luciferase reporter gene assay; assay type: functional, str. MC2 155
[33] = system: Mycolicibacterium smegmatis; assay: Antimycobacterial activity against Mycobacterium smegmatis MC2 155 assessed as inhibition of respiratory ATP synthesis by measuring ATP level at 2 times MIC measured after 6 hrs by luciferase reporter gene assay (reference value: 212.7%); assay type: functional, str. MC2 155; set-up: scale not given: the % may be the effect or the level left
[34] = system: Mycolicibacterium smegmatis; assay: Antimycobacterial activity against Mycobacterium smegmatis MC2 155 assessed as ATP leakage by measuring extracellular ATP at MIC measured at 1 hr of post dose by luciferase reporter gene assay; assay type: functional, str. MC2 155

Sequence of CYP2D6 (P10635 whole entry): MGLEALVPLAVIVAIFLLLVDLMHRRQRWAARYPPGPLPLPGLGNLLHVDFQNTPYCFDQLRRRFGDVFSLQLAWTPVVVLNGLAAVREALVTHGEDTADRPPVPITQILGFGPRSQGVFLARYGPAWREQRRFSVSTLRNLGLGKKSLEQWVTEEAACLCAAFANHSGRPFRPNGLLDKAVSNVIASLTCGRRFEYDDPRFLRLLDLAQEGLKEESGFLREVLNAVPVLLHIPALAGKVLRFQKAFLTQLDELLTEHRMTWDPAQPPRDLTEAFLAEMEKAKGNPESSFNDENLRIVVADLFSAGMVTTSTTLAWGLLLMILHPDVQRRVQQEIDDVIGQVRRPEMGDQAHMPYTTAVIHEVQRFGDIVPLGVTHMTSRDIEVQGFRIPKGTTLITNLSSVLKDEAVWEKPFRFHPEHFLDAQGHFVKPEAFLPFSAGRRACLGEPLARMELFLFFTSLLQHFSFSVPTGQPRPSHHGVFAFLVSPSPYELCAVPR

For `COc1c(OCCCCN2CCOCC2)cc2oc3cc(OCCCCN4CCOCC4)c(CC=C(C)C)c(O)c3c(=O)c2c1CC=C(C)C`, the Activity [1] was 3%, the Activity [2] was 63.4% and the Activity [3] was 96.2%. The Activity [4] was 26.8%, the Activity [5] was 5.3% and the Activity [6] was 36.6%. It also gave an Activity [7] of 42.7%, an Activity [8] of 44.7% and an Activity [9] of 93.5%. The Activity [10] was 57.3%, the metabolised at 0.5 h, 1 µM [11] was 0% and the CC50 at 4 h [12] was greater than 150 µM. The Activity [13] was 91.3%, the Activity [14] was 76.7% and the CC50 at 4 h [15] was greater than 150 µM. It also gave an Activity [16] of 4.5%, an Activity [17] of 94.1% and an Activity [18] of 69.6%. For the same molecule, the Activity [19] was 5.9%, the Activity [20] was 6.7% and the Activity [21] was 84.4%. For the same molecule, the Activity [22] was 36.3%, the Activity [23] was 55.3% and the Activity [24] was 88.7%. The Activity [25] was 92.1%, the MIC90 [26] was 35 µM (≈ 24.3 µg/mL) and the inhibition at 10 min, 10 µM (CYP2D6) was 0%. It also gave an Activity [27] of 63.7%, an Activity [28] of 13.2% and an Activity [29] of 86.8%. It also gave an Activity [30] of 26.5%, an Activity [31] of 97.7% and an Activity [32] of 3.8%. For the same molecule, the Activity [33] was 11% and the Activity [34] was 6.5%.
Molecule `CCCN(CCC)CCCCOc1cc2oc3cc(OCCCCN(CCC)CCC)c(OC)c(CC=C(C)C)c3c(=O)c2c(O)c1CC=C(C)C` has an Activity [1] of 4%, an Activity [2] of 97.4% and an Activity [3] of 95.7%. It also gave an Activity [4] of 4.6%, an Activity [5] of 4.7% and an Activity [6] of 2.6%. For the same molecule, the Activity [7] was 94.3%, the Activity [8] was 91.8% and the Activity [9] was 11.5%. For the same molecule, the Activity [10] was 5.7%, the metabolised at 0.5 h, 1 µM [11] was 10% and the CC50 at 4 h [12] was greater than 150 µM. It also gave an Activity [13] of 83.5%, an Activity [14] of 96.1% and a CC50 at 4 h [15] of 108 µM. For the same molecule, the Activity [16] was 12%, the Activity [17] was 61% and the Activity [18] was 2.8%. It also gave an Activity [19] of 39%, an Activity [20] of 16.5% and an Activity [21] of 96.1%. For the same molecule, the Activity [22] was 88%, the Activity [23] was 91.1% and the Activity [24] was 88.1%. The Activity [25] was 84.3%, the MIC90 [26] was 3.2 µM (≈ 2.31 µg/mL) and the inhibition at 10 min, 10 µM (CYP2D6) was 0%. It also gave an Activity [27] of 12%, an Activity [28] of 30.6% and an Activity [29] of 69.4%. It also gave an Activity [30] of 33.5%, an Activity [31] of 97.7% and an Activity [32] of 4.3%. The Activity [33] was 3.9% and the Activity [34] was 88.5%.
For `CCN(CC)CCCCOc1cc2oc3cc(OCCCCN(CC)CC)c(OC)c(CC=C(C)C)c3c(=O)c2c(O)c1CC=C(C)C`, the Activity [1] was 1.3%, the Activity [2] was 97.3% and the Activity [3] was 98.7%. For the same molecule, the Activity [4] was 2.6%, the Activity [5] was 13.3% and the Activity [6] was 2.7%. It also gave an Activity [7] of 97.4%, an Activity [8] of 88% and an Activity [9] of 57.9%. It also gave an Activity [10] of 2.6%, a metabolised at 0.5 h, 1 µM [11] of 12.1% and a CC50 at 4 h [12] greater than 150 µM. The Activity [13] was 96.7%, the Activity [14] was 96.8% and the CC50 at 4 h [15] was 19.7 µM. The Activity [16] was 2.7%, the Activity [17] was 83.6% and the Activity [18] was 4.4%. For the same molecule, the Activity [19] was 16.4%, the Activity [20] was 3.3% and the Activity [21] was 96.6%. For the same molecule, the Activity [22] was 79.9%, the Activity [23] was 97.5% and the Activity [24] was 44.4%. The Activity [25] was 97.3%, the MIC90 [26] was 3.2 µM (≈ 2.13 µg/mL) and the inhibition at 10 min, 10 µM (CYP2D6) was 6%. It also gave an Activity [27] of 20.1%, an Activity [28] of 12.2% and an Activity [29] of 87.8%. It also gave an Activity [30] of 23.2%, an Activity [31] of 99.2% and an Activity [32] of 1.3%. For the same molecule, the Activity [33] was 2.3% and the Activity [34] was 42.1%.
